The text below walks through data of patent US6500853B1, “Inhibitors of phospholipase enzymes” (Genetics Institute, LLC, priority 1998, dated 2002).

The subject of test [1] is Rat Carrageenan-Induced Footpad Edema. Description: Rat Carrageenan-Induced Footpad Edema Test. Format: in vivo, male Sprague Dawley rats. To be noted: footpad volume 3 hours after carrageenan; for inhibition in vivo at 5 mg/kg / inhibition in vivo at 2 mg/kg / inhibition in vivo at 10 mg/kg: Rattus norvegicus, 3 h, read-out: PERCENT INHIBITION; for inhibition in vivo at 5 mg/kg: iv, IV; for inhibition in vivo at 2 mg/kg / inhibition in vivo at 10 mg/kg: po; for inhibition in vivo at 2 mg/kg / inhibition in vivo at 10 mg/kg / PERCENT INHIBITION: PO. (Carrageenan injected into the paw causes an acute inflammation.)

Another test addresses T1, cPLA2 (Homo sapiens, UniProt P47712).
T1 sequence (P47712 1-749): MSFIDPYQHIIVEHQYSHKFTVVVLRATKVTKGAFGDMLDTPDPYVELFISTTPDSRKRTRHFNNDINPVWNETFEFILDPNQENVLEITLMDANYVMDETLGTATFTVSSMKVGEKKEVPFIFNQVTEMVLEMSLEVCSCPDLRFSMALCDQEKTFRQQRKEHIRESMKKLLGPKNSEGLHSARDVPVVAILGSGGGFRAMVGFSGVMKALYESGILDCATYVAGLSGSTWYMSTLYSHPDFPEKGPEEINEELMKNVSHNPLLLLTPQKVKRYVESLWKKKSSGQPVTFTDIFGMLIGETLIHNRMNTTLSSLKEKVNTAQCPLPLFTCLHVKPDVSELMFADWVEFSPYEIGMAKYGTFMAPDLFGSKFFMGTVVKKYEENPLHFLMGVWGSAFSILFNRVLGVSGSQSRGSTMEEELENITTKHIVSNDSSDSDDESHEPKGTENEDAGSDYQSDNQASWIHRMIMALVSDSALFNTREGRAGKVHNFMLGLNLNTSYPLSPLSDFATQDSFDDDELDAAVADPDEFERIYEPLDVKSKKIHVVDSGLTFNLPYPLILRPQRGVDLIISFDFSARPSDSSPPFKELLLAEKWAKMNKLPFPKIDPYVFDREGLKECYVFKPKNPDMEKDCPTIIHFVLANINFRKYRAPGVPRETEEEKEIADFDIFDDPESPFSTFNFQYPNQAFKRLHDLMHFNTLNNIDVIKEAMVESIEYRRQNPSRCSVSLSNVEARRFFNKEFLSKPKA
Description: Coumarin Assay (cPLA2 inhibition). Format: biochemical. Conditions: for inhibition at 80 µM: CONCENTRATION 80 micromolar; for inhibition at 12.5 µM: CONCENTRATION 12.5 micromolar; for inhibition at 0.65 µM: CONCENTRATION 0.65 micromolar. The procedure, abridged: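 Percent inhibition at the stated concentration, from the rate of 460 nm emission rise (360 nm excitation) per minute. Reaction started by adding 4 μg enzyme to compound and 60 μM 7-hydroxycoumarinyl 6-heptenoate in Hepes buffer pH 7.5 with 1 mM EDTA.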

For orientation: inhibition means the percentage by which the read-out fell short of the control. For the molecule `CCCCNC(=O)Nc1ccc2c(c1)c(Cc1ccc(C(=O)NS(=O)(=O)C(F)(F)F)cc1OC)cn2C(c1ccccc1)c1ccccc1` [Example 42, N-{4-[(1-benzhydryl-5-{[(butylamino)carbonyl]amino}-1H-indol-3-yl)methyl]-3-methoxybenzoyl}(trifluoro)methanesulfonamide], in test [1], the inhibition in vivo at 5 mg/kg stood at 7.72%. Moreover, the inhibition at 2.2 µM on cPLA2 (CONCENTRATION 2.2 micromolar, read-out: PERCENT INHIBITION @) was 50%. In addition, the inhibition at 3 µM on cPLA2 (CONCENTRATION 3 micromolar, read-out: PERCENT INHIBITION @) came out at 50%. For the same molecule, the inhibition at 3.8 µM at cPLA2 (CONCENTRATION 3.8 micromolar, read-out: PERCENT INHIBITION @) came out at 50%.

With `O=C(O)c1cccc(NC(=O)c2cn(C(c3ccccc3)c3ccccc3)c3ccc(NC(=O)C4CCCC4)cc23)c1` [Example 100, 3-[({1-benzhydryl-5-[(cyclopentylcarbonyl)amino]-1H-indol-3-yl}carbonyl)amino]benzoic acid], in test [1] (2 mg/Kg), the inhibition in vivo at 2 mg/kg was 6.14%. The inhibition in vivo at 10 mg/kg in test [1] (10 mg/Kg) worked out at 20.7%. Besides, the inhibition at 24 µM at cPLA2 (CONCENTRATION 24 micromolar, read-out: PERCENT INHIBITION @) came to 50%. At cPLA2 (CONCENTRATION 30 micromolar, read-out: PERCENT INHIBITION @), the inhibition at 30 µM was 50%. The inhibition at 80 µM at cPLA2 (read-out: PERCENT INHIBITION @) amounted to 50%.

On to `O=C(Nc1cccc(C(=O)O)c1)C(=O)c1cn(Cc2ccc(OCc3ccccc3)c(OCc3ccccc3)c2)c2ccccc12` [Example 63, 3-[(2-{1-[3,4-bis(benzyloxy)benzyl]-1H-indol-3-yl}-2-oxoacetyl)amino]benzoic acid], for which the inhibition in vivo at 5 mg/kg in test [1] came out at 19.6%. Moreover, at cPLA2 (CONCENTRATION 2.5 micromolar, read-out: PERCENT INHIBITION @), the inhibition at 2.5 µM amounted to 70%. On cPLA2 (CONCENTRATION 7 micromolar, read-out: PERCENT INHIBITION @), the inhibition at 7 µM worked out at 50%.

In the case of `O=C(Nc1cccc(C(=O)O)c1)C(=O)c1cn(Cc2ccc(Cc3ccccc3)cc2)c2ccccc12` [Example 59, 3-({2-[1-(4-benzylbenzyl)-1H-indol-3-yl]-2-oxoacetyl}amino)benzoic acid], the inhibition in vivo at 5 mg/kg in test [1] was found to be 2.9%. For the same molecule, the inhibition at 6 µM on cPLA2 (CONCENTRATION 6 micromolar, read-out: PERCENT INHIBITION @) was 50%. Also, the inhibition at 12.5 µM on cPLA2 (read-out: PERCENT INHIBITION @) was determined as 90%.

With `O=C(Nc1cccc(C(=O)O)c1)C(=O)c1cn(C(c2ccccc2)c2ccccc2)c2ccccc12` [Example 61, 3-{[2-(1-benzhydryl-1H-indol-3-yl)-2-oxoacetyl]amino}benzoic acid], the inhibition in vivo at 5 mg/kg in test [1] stood at 18.3%. For the same molecule, the inhibition at 10 µM at cPLA2 (CONCENTRATION 10 micromolar, read-out: PERCENT INHIBITION @) stood at 50%. The inhibition at 12.5 µM at cPLA2 (read-out: PERCENT INHIBITION @) was found to be 54%.

`COc1cc(C(=O)O)ccc1Cc1cn(C(c2ccccc2)c2ccccc2)c2ccc(C)cc12` [Example 15, 4-[(1-benzhydryl-5-methyl-1H-indol-3-yl)methyl]-3-methoxybenzoic acid]: in test [1] (2 mg/Kg), the inhibition in vivo at 2 mg/kg is 7.05%. The inhibition in vivo at 10 mg/kg in test [1] (10 mg/Kg) turned out to be 6.88%. Further, the inhibition at 0.65 µM on cPLA2 (read-out: PERCENT INHIBITION @) worked out at 50%. The inhibition at 0.72 µM at cPLA2 (CONCENTRATION 0.72 micromolar, read-out: PERCENT INHIBITION @) was determined as 50%. Further, the inhibition at 0.76 µM on cPLA2 (CONCENTRATION 0.76 micromolar, read-out: PERCENT INHIBITION @) is 50%. Besides, the inhibition at 0.85 µM on cPLA2 (CONCENTRATION 0.85 micromolar, read-out: PERCENT INHIBITION @) was found to be 50%. The inhibition at 6.25 µM at cPLA2 (CONCENTRATION 6.25 micromolar, read-out: PERCENT INHIBITION @) was 90%.

In the case of `COc1cc(C(=O)NS(=O)(=O)C(F)(F)F)ccc1Cc1cn(C(c2ccccc2)c2ccccc2)c2ccc([N+](=O)[O-])cc12` [Example 37, N-{4-[(1-benzhydryl-5-nitro-1H-indol-3-yl)methyl]-3-methoxybenzoyl}(trifluoro)methanesulfonamide], the inhibition in vivo at 2 mg/kg in test [1] (2 mg/Kg) was -7.94%. For the same molecule, in test [1] (10 mg/Kg), the inhibition in vivo at 10 mg/kg was 3.36%. For the same molecule, the inhibition at 0.4 µM on cPLA2 (CONCENTRATION 0.4 micromolar, read-out: PERCENT INHIBITION @) stood at 50%. Moreover, the inhibition at 0.5 µM at cPLA2 (CONCENTRATION 0.5 micromolar, read-out: PERCENT INHIBITION @) amounted to 50%. The inhibition at 0.55 µM at cPLA2 (CONCENTRATION 0.55 micromolar, read-out: PERCENT INHIBITION @) was determined as 50%. The inhibition at 0.65 µM at cPLA2 (read-out: PERCENT INHIBITION @) is 50%.

Consider `COc1cc(C(N)=O)ccc1Cc1cn(C(c2ccccc2)c2ccccc2)c2ccc(NC(=O)OC3CCCC3)cc12` [Example 97, Cyclopentyl-N-{3-[4-(aminocarbonyl)-2-methoxybenzyl]-1-benzhydryl-1H-indol-5-yl}carbamate], for which, in test [1], the inhibition in vivo at 5 mg/kg was found to be 21.3%. On cPLA2 (CONCENTRATION 50 micromolar, read-out: PERCENT INHIBITION @), the inhibition at 50 µM came to 50%. Besides, at cPLA2 (read-out: PERCENT INHIBITION @), the inhibition at 80 µM came out at 50%. Moreover, on cPLA2 (CONCENTRATION 94 micromolar, read-out: PERCENT INHIBITION @), the inhibition at 94 µM amounted to 50%.

In the case of `CCCCNC(=O)Nc1ccc2c(c1)c(Cc1ccc(C(=O)O)cc1OC)cn2C(c1ccccc1)c1ccccc1` [Example 9, 4[(1-benzhydryl-5-{[(butylamino)carbonyl]amino}-1H-indol-3-yl)methyl]3-methoxybenzoic acid], the inhibition in vivo at 5 mg/kg in test [1] turned out to be 4.46%. Besides, the inhibition at 13 µM on cPLA2 (CONCENTRATION 13 micromolar, read-out: PERCENT INHIBITION @) is 50%. Further, the inhibition at 19 µM at cPLA2 (CONCENTRATION 19 micromolar, read-out: PERCENT INHIBITION @) was 50%.

Turning to `COc1cc(C(=O)O)ccc1Cc1cn(C2CCCC2)c2ccc(NC(=O)OC3CCCC3)cc12` [Example 8, 4-[(1-cyclopentyl-5-{[(cyclopentyloxy)carbonyl]amino}-1H-indol-3-yl)methyl]-3-methoxybenzoicacid], the inhibition in vivo at 5 mg/kg in test [1] was -5.7%. The inhibition at 65 µM on cPLA2 (CONCENTRATION 65 micromolar, read-out: PERCENT INHIBITION @) was determined as 50%. On cPLA2 (CONCENTRATION 100 micromolar, read-out: PERCENT INHIBITION @), the inhibition at 100 µM is 44%.

As to `O=C(NS(=O)(=O)C(F)(F)F)c1ccc(Cc2cn(C(c3ccccc3)c3ccccc3)c3ccc(Br)cc23)cc1` [Example 58, N-{4-[(1-benzhydryl-5-bromo-1H-indol-3-yl)methyl]benzoyl}(trifluoro)methanesulfonamide], the inhibition in vivo at 2 mg/kg in test [1] (2 mg/Kg) was determined as 13.8%. The inhibition in vivo at 10 mg/kg in test [1] (10 mg/Kg) turned out to be 9.96%. Also, the inhibition at 1.65 µM on cPLA2 (CONCENTRATION 1.65 micromolar, read-out: PERCENT INHIBITION @) worked out at 50%.

Take `O=C(O)c1ccc(Cc2cn(C(c3ccccc3)c3ccccc3)c3ccc([N+](=O)[O-])cc23)cc1` [Example 50, 4-[(-benzhydryl-5-nitro-1H-indol-3-yl)methyl]benzoic acid]: the “PERCENT INHIBITION” value in test [1] (2 mg/Kg) was 5.44%; in test [1] (10 mg/Kg) it was 12.34%. The “PERCENT INHIBITION @” value at cPLA2 (CONCENTRATION 0.8 micromolar) was 50%; at cPLA2 (CONCENTRATION 0.85 micromolar), 50%; at cPLA2 (CONCENTRATION 1.05 micromolar) it was 50%; on cPLA2 (CONCENTRATION 2.5 micromolar) it was 81%.

Consider `O=C(O)CN1CCN(Cc2cn(C(c3ccccc3)c3ccccc3)c3ccc(NC(=O)C4CCCC4)cc23)CC1` [Example 66, 2-[4-({1-benzhydryl-5-[(cyclopentylcarbonyl)amino]-1H-indol-3-yl}methyl)piperazino]acetic acid], for which the inhibition in vivo at 5 mg/kg in test [1] came out at 25.3%. In addition, on cPLA2 (CONCENTRATION 70 micromolar, read-out: PERCENT INHIBITION @), the inhibition at 70 µM was 50%. The “PERCENT INHIBITION @” value at cPLA2 (CONCENTRATION 200 micromolar) amounted to 19%. In addition, the inhibition at 200 µM at cPLA2 (CONCENTRATION 200 micromolar, read-out: PERCENT INHIBITION @) worked out at 15%.
